{"source": "patent US10159249B2", "about": "(BAYER CROPSCIENCE AKTIENGESELLSCHAFT, priority 2013, dated 2018)", "key": {"[1]": {"test_system": "wild type soybean plants (Merlin and Thorne)", "type": "in vivo", "conditions": "21 days after spraying"}, "[2]": {"test_system": "maize transgenic T0 events expressing Axmi309H-Evo41", "type": "in vivo", "conditions": "100 g AI/ha, six days after application", "protocol": "(§1) Regenerated T0 events from tissue culture were transplanted into two inch square pots with synthetic soil (Fafard® Mix) and controlled-released fertilizer (Haifa Multicote™; polymer-coated controlled-release fertilizer, NPK Pro 18-6-12+Micronutrients) and cultivated in the greenhouse (GH) under supplementary high pressure sodium light for 12 days at a maximum of 30° C. during the day and a minimum of 22° C. at night. Fully recovered plants were transferred into five inch square pots filled with synthetic soil and control released fertilizer under the same environmental conditions. […] All herbicide treatments were conducted in a DeVries Tracker Sprayer system with standard application protocols, which are well known in the art.\n(§2) A rating of “1” was assigned to plants having a moderate tolerance with 16% to 40% damage of total leaf area. A rating of “2” was assigned to plants with good tolerance within the range of 6% to 15% damage of total leaf area."}, "[3]": {"target": "PfHPPD-Evo33 (SEQ ID No 25) (Pseudomonas sp., UniProt P80064, A172V/A53E/D148E/D45N/E105D/E287Q/E300V/E334P/F143Y/G286D/G335W/H150N/H254A/H63N/I158V/I187A/I249V/K92N/L18F/N24G/N280D/S245T/S257K/S301E/T205S/V65I)", "sequence (P80064 1-354 with tags or gaps with the stated changes limits assumed)": "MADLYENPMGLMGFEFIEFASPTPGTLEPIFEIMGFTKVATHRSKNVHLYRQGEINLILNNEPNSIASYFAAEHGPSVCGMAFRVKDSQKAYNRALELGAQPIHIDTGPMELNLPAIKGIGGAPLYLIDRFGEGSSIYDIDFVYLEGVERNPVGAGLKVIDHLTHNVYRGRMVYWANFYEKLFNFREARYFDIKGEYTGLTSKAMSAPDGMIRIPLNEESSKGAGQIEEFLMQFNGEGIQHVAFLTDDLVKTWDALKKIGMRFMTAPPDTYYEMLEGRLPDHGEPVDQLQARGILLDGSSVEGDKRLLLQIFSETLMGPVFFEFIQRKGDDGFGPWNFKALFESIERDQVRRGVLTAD", "assay": "biochemical", "design": "species or system Pseudomonas fluorescens"}, "[4]": {"target": "Avena sativa Δ A109 (SEQ ID No 43) (Avena sativa, UniProt A0ACD5V6K6, DEL109-109)", "sequence (A0ACD5V6K6 entry or part of it DEL109-109)": "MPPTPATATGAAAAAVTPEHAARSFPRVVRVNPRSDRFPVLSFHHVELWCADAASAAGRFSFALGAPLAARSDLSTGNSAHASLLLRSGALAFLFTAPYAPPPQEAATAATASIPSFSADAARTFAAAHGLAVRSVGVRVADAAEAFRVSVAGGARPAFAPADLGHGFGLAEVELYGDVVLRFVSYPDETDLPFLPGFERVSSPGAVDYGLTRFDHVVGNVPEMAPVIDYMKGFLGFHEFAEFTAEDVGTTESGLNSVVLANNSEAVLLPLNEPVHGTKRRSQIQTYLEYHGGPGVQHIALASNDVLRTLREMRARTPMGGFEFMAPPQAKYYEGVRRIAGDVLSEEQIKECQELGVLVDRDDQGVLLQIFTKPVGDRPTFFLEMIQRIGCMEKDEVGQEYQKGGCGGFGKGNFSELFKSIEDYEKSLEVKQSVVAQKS", "assay": "HPPD activity in presence of inhibitor, HGD assay", "type": "biochemical", "protocol": "(§3) With the HGD assay HPPD activity was measured at room temperature by adding appropriate amounts of HPPD to a solution of 200 mM Tris-HCl pH 7.6, 10 mM ascorbate, 20 μM FeSO4, 650 units of catalase, 8 μg HGA dioxygenase (HGA: homogentisate) and 600 μM HPP in a total volume of 1 ml. Initial reaction rates were determined from the increase in absorbance at 318 nm due to the formation of maleylacetoacetate (ε318=11,900 M-1 cm-1).\n(§4) In cases, the symbol “>” is used this means that the value was far higher than the one indicated but could not be precisely calculated within in the range of concentration of inhibitor tested.\n(§5) In the 1st column of Table 1, the HPPD employed in the assay is named and in the 2nd column of Table 1, the corresponding SEQ ID No of present invention is disclosed."}, "FMP27 (SEQ ID No 17)": {"target": "FMP27 (SEQ ID No 17) (Kordia algicida, UniProt A9DQF2)", "sequence (A9DQF2 1-387)": "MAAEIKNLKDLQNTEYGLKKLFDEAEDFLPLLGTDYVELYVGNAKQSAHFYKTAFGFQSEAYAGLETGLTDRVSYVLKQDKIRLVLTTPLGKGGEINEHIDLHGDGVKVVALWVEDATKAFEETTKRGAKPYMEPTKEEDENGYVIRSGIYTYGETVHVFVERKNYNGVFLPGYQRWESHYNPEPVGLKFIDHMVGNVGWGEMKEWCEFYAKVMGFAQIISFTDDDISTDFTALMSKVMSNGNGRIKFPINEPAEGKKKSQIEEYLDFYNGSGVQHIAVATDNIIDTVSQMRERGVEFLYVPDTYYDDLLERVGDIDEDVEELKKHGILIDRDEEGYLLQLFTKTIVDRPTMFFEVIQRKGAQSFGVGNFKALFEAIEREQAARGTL", "assay": "HPPD activity in presence of inhibitor, HGD assay", "type": "biochemical", "protocol": "as §3, §4, §5"}, "FMP37 (SEQ ID No 9)": {"target": "FMP37 (SEQ ID No 9) (Blepharisma japonicum, UniProt A8R3H6)", "sequence (A8R3H6 1-382)": "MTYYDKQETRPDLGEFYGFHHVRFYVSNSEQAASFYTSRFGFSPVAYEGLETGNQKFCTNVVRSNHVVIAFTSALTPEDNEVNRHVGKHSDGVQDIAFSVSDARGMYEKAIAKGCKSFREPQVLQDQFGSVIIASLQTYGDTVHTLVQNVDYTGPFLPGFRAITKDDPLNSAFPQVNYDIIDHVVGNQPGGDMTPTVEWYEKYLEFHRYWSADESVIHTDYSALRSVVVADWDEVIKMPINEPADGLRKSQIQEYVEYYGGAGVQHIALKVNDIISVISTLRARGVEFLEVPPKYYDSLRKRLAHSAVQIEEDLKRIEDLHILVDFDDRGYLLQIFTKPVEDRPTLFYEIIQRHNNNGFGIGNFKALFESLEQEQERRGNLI", "assay": "HPPD activity in presence of inhibitor, HGD assay", "type": "biochemical", "protocol": "as §3, §4, §5"}, "[5]": {"test_system": "Control maize plants (EPSPS selectable marker gene, no HPPD variant)", "assay": "Greenhouse trial, maize T0 plants, leaf area damage", "type": "in vivo", "conditions": "for number of events, herbicide tolerance class 0 (41%-100% damaged leaf area) / number of events, herbicide tolerance class 1 (16%-40% damaged leaf area) / number of events, herbicide tolerance class 2 (6%-15% damaged leaf area) / number of events, herbicide tolerance class 3 (0%-5% damaged leaf area): maize Control", "protocol": "as §1, with “art. As a spray control T0 events have been sprayed with the adjunvant mixture lacking the herbicide.” for “art.”\nas §2"}, "[6]": {"test_system": "Ipomoea aristolochiaefolia", "conditions": "application at 6 leaf stage, assessment 14 days after application"}, "Axmi428H (SEQ ID No 31)": {"target": "Axmi428H (SEQ ID No 31) (Comamonas testosteroni, UniProt A0A8B4SBH1)", "sequence (A0A8B4SBH1 1-373)": "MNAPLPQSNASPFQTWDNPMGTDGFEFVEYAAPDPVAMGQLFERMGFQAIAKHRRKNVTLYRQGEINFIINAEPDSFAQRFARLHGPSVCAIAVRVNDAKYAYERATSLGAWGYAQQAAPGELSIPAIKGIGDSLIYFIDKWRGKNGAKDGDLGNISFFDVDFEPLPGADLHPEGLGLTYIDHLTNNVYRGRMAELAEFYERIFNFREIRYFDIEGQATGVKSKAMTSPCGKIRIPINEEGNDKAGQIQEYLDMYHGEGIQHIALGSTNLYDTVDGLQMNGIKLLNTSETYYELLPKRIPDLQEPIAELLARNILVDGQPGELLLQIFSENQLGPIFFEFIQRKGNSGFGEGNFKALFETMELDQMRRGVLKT", "assay": "HPPD activity in presence of inhibitor, HGD assay", "type": "biochemical, Pseudomonas (=Comamonas) testosteroni", "conditions": "0.2 μM inhibitor", "protocol": "as §3, §4, §5"}, "FMP22 (SEQ ID No 11)": {"target": "FMP22 (SEQ ID No 11) (Rhodococcus jostii, UniProt A0ABU4CPN1)", "sequence (A0ABU4CPN1 1-401)": "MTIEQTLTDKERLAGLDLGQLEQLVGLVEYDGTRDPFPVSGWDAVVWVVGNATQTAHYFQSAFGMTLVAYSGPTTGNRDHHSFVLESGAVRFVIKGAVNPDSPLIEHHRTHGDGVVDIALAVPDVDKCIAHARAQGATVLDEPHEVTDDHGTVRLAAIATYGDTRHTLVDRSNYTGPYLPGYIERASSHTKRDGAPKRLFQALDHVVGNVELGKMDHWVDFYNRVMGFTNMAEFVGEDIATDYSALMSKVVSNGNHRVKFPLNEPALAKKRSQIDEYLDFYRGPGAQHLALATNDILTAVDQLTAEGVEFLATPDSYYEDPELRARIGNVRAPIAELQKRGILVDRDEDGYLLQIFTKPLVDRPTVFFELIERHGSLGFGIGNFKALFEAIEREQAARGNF", "assay": "HPPD activity in presence of inhibitor, HGD assay", "type": "biochemical, Rhodococcus sp. (strain RHA1), isolate ro03041", "conditions": "0.2 μM inhibitor", "protocol": "as §3, §4, §5"}, "[7]": {"test_system": "transgenic soybean T1 plants expressing PfHPPD-Evo41", "type": "in vivo", "conditions": "for number of events, herbicide tolerance class 0 (41%-100% damaged leaf area) / number of events, herbicide tolerance class 1 (16%-40% damaged leaf area) / number of events, herbicide tolerance class 2 (6%-15% damaged leaf area) / number of events, herbicide tolerance class 3 (0%-5% damaged leaf area): soybean PfHPPD-Evo41, scored after 21 days"}, "wild type soybean Merlin": {"test_system": "wild type soybean Merlin", "type": "in vivo", "conditions": "scored after 21 days"}, "[8]": {"conditions": "25 g AI/ha, evaluation 9 days after treatment"}, "[9]": {"conditions": "50 g AI/ha, six days after application"}, "[10]": {"conditions": "100 g AI/ha, six days after application"}, "[11]": {"conditions": "soybean Merlin (wt), 6.25 g AI/ha"}}, "note": "pIC50: −log10 of the molar value. Read-outs that look alike come from different tables or passages of the source. Marks after values point to notes of the source that are not given here.", "data": [{"smiles": "CSc1c(C(F)(F)F)ccc(C(=O)Nc2nnnn2C)c1Cl", "values": [{"measurement": "bleaching of the total leaf area", "setting": "[1]; 6.25 g of AI/ha", "value": "45%-50%"}, {"measurement": "damaged leaf area", "setting": "[1]; 25 g of AI/ha", "value": "90-100%"}, {"measurement": "number of events, herbicide tolerance class 0 (41%-100% damaged leaf area)", "setting": "[2]", "value": 5}, {"measurement": "number of events, herbicide tolerance class 1 (16%-40% damaged leaf area)", "setting": "[2]", "value": 9}, {"measurement": "number of events, herbicide tolerance class 2 (6%-15% damaged leaf area)", "setting": "[2]", "value": 16}, {"measurement": "number of events, herbicide tolerance class 3 (0%-5% damaged leaf area)", "setting": "[2]", "value": 6}, {"measurement": "pIC50", "setting": "[3]", "value": 6.60}, {"measurement": "% inhibition at 0.2 μM", "setting": "[3]; 0.2 μM inhibitor, HGD assay", "value": 39, "unit": "%"}, {"measurement": "pIC50", "setting": "[4]", "value": 5.70}, {"measurement": "inhibition at 0.2 µM", "setting": "[4]; 0.2 μM inhibitor, HGD assay", "value": 8, "unit": "%"}, {"measurement": "pIC50", "setting": "FMP27 (SEQ ID No 17)", "value": 6.50}, {"measurement": "inhibition at 0.2 µM", "setting": "FMP27 (SEQ ID No 17); 0.2 μM inhibitor, HGD assay", "value": 29, "unit": "%"}, {"measurement": "pIC50", "setting": "FMP37 (SEQ ID No 9)", "value": 5.30}, {"measurement": "inhibition at 0.2 µM", "setting": "FMP37 (SEQ ID No 9); 0.2 μM inhibitor, HGD assay", "value": 0, "unit": "%"}, {"measurement": "bleaching symptoms", "setting": "[5]; all control events, 25 g of AI/ha", "value": "severe bleaching symptoms"}, {"measurement": "leaf damage", "setting": "[5]; control maize T0 events without HPPD variant, 25 g AI/ha", "value": 100, "unit": "%"}, {"measurement": "number of events, herbicide tolerance class 0 (41%-100% damaged leaf area)", "setting": "[5]; [8]", "value": "5*"}, {"measurement": "number of events, herbicide tolerance class 1 (16%-40% damaged leaf area)", "setting": "[5]; [8]", "value": 0}, {"measurement": "number of events, herbicide tolerance class 2 (6%-15% damaged leaf area)", "setting": "[5]; [8]", "value": 0}, {"measurement": "number of events, herbicide tolerance class 3 (0%-5% damaged leaf area)", "setting": "[5]; [8]", "value": 0}, {"measurement": "number of events, herbicide tolerance class 0 (41%-100% damaged leaf area)", "setting": "[5]; [9]", "value": 4}, {"measurement": "number of events, herbicide tolerance class 1 (16%-40% damaged leaf area)", "setting": "[5]; [9]", "value": 0}, {"measurement": "number of events, herbicide tolerance class 2 (6%-15% damaged leaf area)", "setting": "[5]; [9]", "value": 0}, {"measurement": "number of events, herbicide tolerance class 3 (0%-5% damaged leaf area)", "setting": "[5]; [9]", "value": 0}, {"measurement": "number of events, herbicide tolerance class 0 (41%-100% damaged leaf area)", "setting": "[5]; [10]", "value": 50}, {"measurement": "number of events, herbicide tolerance class 1 (16%-40% damaged leaf area)", "setting": "[5]; [10]", "value": 0}, {"measurement": "number of events, herbicide tolerance class 2 (6%-15% damaged leaf area)", "setting": "[5]; [10]", "value": 0}, {"measurement": "number of events, herbicide tolerance class 3 (0%-5% damaged leaf area)", "setting": "[5]; [10]", "value": 0}, {"measurement": "Efficacy (%) Ipomoea aristolochiaefolia", "setting": "[6]; (A) 25 g ai/ha", "value": 10, "unit": "%"}, {"measurement": "Efficacy (%) Ipomoea aristolochiaefolia", "setting": "[6]; (A) 50 g ai/ha", "value": 15, "unit": "%"}, {"measurement": "inhibition at 0.2 µM", "setting": "Axmi428H (SEQ ID No 31)", "value": 71, "unit": "%"}, {"measurement": "inhibition at 0.2 µM", "setting": "FMP22 (SEQ ID No 11)", "value": 0, "unit": "%"}, {"measurement": "herbicide tolerance", "setting": "[7]; most soybean T1 plants expressing PfHPPD-Evo41, 25 g AI/ha", "value": "high tolerance"}, {"measurement": "damaged leaf area", "setting": "[7]; several soybean T1 plants expressing PfHPPD-Evo41, 50 g AI/ha", "value": "less than 5%"}, {"measurement": "number of events, herbicide tolerance class 0 (41%-100% damaged leaf area)", "setting": "[7]; 6.25 g AI/ha", "value": 0}, {"measurement": "number of events, herbicide tolerance class 1 (16%-40% damaged leaf area)", "setting": "[7]; 6.25 g AI/ha", "value": 0}, {"measurement": "number of events, herbicide tolerance class 2 (6%-15% damaged leaf area)", "setting": "[7]; 6.25 g AI/ha", "value": 0}, {"measurement": "number of events, herbicide tolerance class 3 (0%-5% damaged leaf area)", "setting": "[7]; 6.25 g AI/ha", "value": 12}, {"measurement": "number of events, herbicide tolerance class 0 (41%-100% damaged leaf area)", "setting": "[7]; 25 g AI/ha", "value": 2}, {"measurement": "number of events, herbicide tolerance class 1 (16%-40% damaged leaf area)", "setting": "[7]; 25 g AI/ha", "value": 8}, {"measurement": "number of events, herbicide tolerance class 2 (6%-15% damaged leaf area)", "setting": "[7]; 25 g AI/ha", "value": 1}, {"measurement": "number of events, herbicide tolerance class 3 (0%-5% damaged leaf area)", "setting": "[7]; 25 g AI/ha", "value": 21}, {"measurement": "number of events, herbicide tolerance class 0 (41%-100% damaged leaf area)", "setting": "[7]; 50 g AI/ha", "value": 0}, {"measurement": "number of events, herbicide tolerance class 1 (16%-40% damaged leaf area)", "setting": "[7]; 50 g AI/ha", "value": 1}, {"measurement": "number of events, herbicide tolerance class 2 (6%-15% damaged leaf area)", "setting": "[7]; 50 g AI/ha", "value": 0}, {"measurement": "number of events, herbicide tolerance class 3 (0%-5% damaged leaf area)", "setting": "[7]; 50 g AI/ha", "value": 3}, {"measurement": "number of events, herbicide tolerance class 0 (41%-100% damaged leaf area)", "setting": "[7]; 75 g AI/ha", "value": 0}, {"measurement": "number of events, herbicide tolerance class 1 (16%-40% damaged leaf area)", "setting": "[7]; 75 g AI/ha", "value": 4}, {"measurement": "number of events, herbicide tolerance class 2 (6%-15% damaged leaf area)", "setting": "[7]; 75 g AI/ha", "value": 0}, {"measurement": "number of events, herbicide tolerance class 3 (0%-5% damaged leaf area)", "setting": "[7]; 75 g AI/ha", "value": 0}, {"measurement": "number of events, herbicide tolerance class 0 (41%-100% damaged leaf area)", "setting": "wild type soybean Merlin; [11]", "value": 4}, {"measurement": "number of events, herbicide tolerance class 1 (16%-40% damaged leaf area)", "setting": "wild type soybean Merlin; [11]", "value": 0}, {"measurement": "number of events, herbicide tolerance class 2 (6%-15% damaged leaf area)", "setting": "wild type soybean Merlin; [11]", "value": 0}, {"measurement": "number of events, herbicide tolerance class 3 (0%-5% damaged leaf area)", "setting": "wild type soybean Merlin; [11]", "value": 0}, {"measurement": "number of events, herbicide tolerance class 0 (41%-100% damaged leaf area)", "setting": "wild type soybean Merlin; soybean Merlin, 25 g AI/ha", "value": 4}, {"measurement": "number of events, herbicide tolerance class 1 (16%-40% damaged leaf area)", "setting": "wild type soybean Merlin; soybean Merlin, 25 g AI/ha", "value": 0}, {"measurement": "number of events, herbicide tolerance class 2 (6%-15% damaged leaf area)", "setting": "wild type soybean Merlin; soybean Merlin, 25 g AI/ha", "value": 0}, {"measurement": "number of events, herbicide tolerance class 3 (0%-5% damaged leaf area)", "setting": "wild type soybean Merlin; soybean Merlin, 25 g AI/ha", "value": 0}]}]}
